Data taken from patent publication US7723328B2, “Methods of facilitating cell survival using neurotrophin mimetics” (The University of North Carolina at Chapel Hill, priority 2005, dated 2010).
“Also recorded” adds a separate entry of the source. Where two headings read alike, the source gives them in different places.

Assays:
[1] = test system: E16-17 mouse hippocampal neurons; test: Hippocampal neuron survival (morphology plus MTT conversion); assay type: cell-based; conditions: 48 h; counts normalized to 25 ng/ml BDNF or baseline; up to 5 nM
Method: (§1) Hippocampal neurons were prepared from E16-17 mouse embryos as previously described (Yang. T. et al. (2003) J Neurosci 23, 3353-3363). […] For studies employing p75^NTR+/+ and p75^NTR−/− neurons, mice carrying a mutation in exon 3 of the p75^NTR gene (Lee, K. F. et al. (1992) Cell 69, 737-749) were bred onto a B6 congenic background (>10 B6 backcrosses).
(§2) After 48 hours in culture, cell survival was assessed as previously described (Longo, F. M., Manthorpe. M., Xie. Y. M., Varon, S. (1997) J Neurosci Res 48, 1-17) using a combination of standard morphological criteria along with visual determination of whether a given cell converted MTT to its blue formazan product. The number of surviving neurons was determined by counting the total number of cells in each well that were both morphologically intact and filed with blue product (Longo F. M., Manthorpe. M., Xie, Y. M., Varon, S. (1997) J Neurosci Res 48, 1-17). For each neurotrophin or compound concentration, duplicate wells were counted and the resulting values averaged. Activity of each compound was confirmed by blinded counts. Counts were normalized to survival achieved with 25 ng/ml BDNF or to baseline survival. Fitting of dose-responsive curves was performed with Sigmaplot obtained from SYSTAT Software Inc. (Richmond, Calif., United States of America).

NFκB-p65 = NFκB-p65 phosphorylation western blot in hippocampal cultures; assay type: cell-based, mouse; conditions: compounds 20 nM, BDNF/NGF 50 ng/ml; 10 and 30 min
Method: (§3) For assays of Trk, AKT, NFκB, and ERK activation, hippocampal neurons derived from E16-17 mice were cultured in poly-L-lysine coated six-well plates (Corning, Inc., Corning, N.Y., United States of America) in DMEM containing 10% FBS, followed by incubation in serum-free DMEM for 2 hours before addition of neurotrophins or compounds. At the indicated time points, neurons were harvested in lysis buffer consisting of: 20 mM Tris, pH 8.0, 137 mM NaCl, 1% Igepal CA-630, 10% glycerol, 1 mM PMSF, 10 μg/ml aprotinin, 1 μg/ml leupeptin, 500 μM orthovanadate (Zhou, J., Valletta, J. S., Grimes, M. L., Mobley, W. C. (1995) J Neurochem 65, 1146-1156).
(§4) Lysates were centrifuged, the supernatant collected, and protein concentrations determined using the BCA Protein Assay Reagent obtained from Pierce (Rockford, Ill., United States of America). Western blots were performed as described previously (Yang, T. et al. (2003) J Neurosci 23, 3353-3363). Western blot signals were detected using the ECL Chemiluminescence System obtained by Amersham (Piscataway, N.J., United States of America) (Yang, T. et al. (2003) J Neurosci 23, 3353-3363).

mature oligodendrocytes = test: Oligodendrocyte cell death assay (MBP/TUNEL) with or without proNGF; assay type: cell-based, rat
Method: Cortical oligondendrocytes from rat pups were prepared as previously described (Yoon et al. (1998) J Neurosci 18, 3273-3281, Harrington, A. W., Kim, J. Y., Yoon, S. O. (2002) J Neurosci 22, 156-166). Cells were treated with recombinant, cleavage-resistant proNGF at 0.05 nM (2.8 ng/ml). Controls were treated with equivalent volumes of proNGF purification buffer containing 350 mM imidazole. 24 hours after treatment, the cells were fixed and processed for MBP and TUNEL staining as previously described (Beattie, M. S. et al. (2002) Neuron 36, 375-386). 200-250 cells were counted per well, for a minimum of 600 cells per experimental condition.

[2] = target: T1, p75^NTR-expressing 3T3 cells (Homo sapiens, UniProt P08138); test: p75NTR antibody (Ab 9651) competition on 3T3 cells, western blot; assay type: binding; conditions: 100 nM compound, 90 min, 4° C.
T1 construct: host or cells: NIH3T3 fibroblasts
T1 sequence (P08138 29-427): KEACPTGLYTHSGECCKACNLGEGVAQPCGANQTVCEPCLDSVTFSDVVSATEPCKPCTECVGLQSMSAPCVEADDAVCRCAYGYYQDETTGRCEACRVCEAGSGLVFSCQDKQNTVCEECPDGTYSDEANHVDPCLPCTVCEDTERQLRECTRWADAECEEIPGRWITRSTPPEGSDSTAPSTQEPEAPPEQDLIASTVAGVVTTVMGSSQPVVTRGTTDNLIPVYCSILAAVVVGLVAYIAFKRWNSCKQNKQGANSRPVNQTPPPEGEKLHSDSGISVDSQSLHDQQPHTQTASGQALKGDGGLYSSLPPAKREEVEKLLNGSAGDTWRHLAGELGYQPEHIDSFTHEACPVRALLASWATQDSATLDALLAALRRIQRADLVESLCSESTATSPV
Method: NIH3T3 fibroblasts expressing either null vector or p75^NTR (Huang, C. S. et al. (1999) J Biol Chem 274, 36707-36714) were obtained from Dr. William Mobley (Stanford University, Calif., United States of America). Cells were grown in monolayers, harvested in PBS with 2 mM EDTA, pelleted, and resuspended in ice-cold DMEM HEPES with 1 mg/ml BSA. 6-9×10^6 cells from one confluent 6-well plate were used for each experimental point.
For binding analysis, p75^NTR antibody (1:100) was allowed to bind in the presence or absence of 100 nM p75-binding compounds for 90 minutes at 4° C. with gentle rotation, followed by four washes in PBS. The final cell pellet was resuspended in lysis buffer.
Western blots were performed as described above. To detect the presence of p75^NTR antibody, blots were probed with horseradish peroxidase-linked goat anti-rabbit IgG obtained from Amersham/Pharmacia Biotech (Piscataway, N.J., United States of America). Signals were detected by the ECL chemiluminescence system obtained from Amersham Biosciences (Piscataway, […]., United States of America). To control for variation in protein loading, the blot was stripped and reprobed with β-actin monoclonal antibody obtained from Sigma (St. Louis, Mo., United States of America).

E17 hippocampal neurons = test: Aβ-induced death of hippocampal neurons; assay type: cell-based; conditions: Aβ1-42 10 μM; NGF at 100 pg/ml
Method: Using previously well established protocols, Aβ was preincubated for 3 days in water to allow formation of oligomers. E17 hippocampal neurons were incubated for 5 days to allow for maturation prior to addition of Aβ with test compounds.

TrkA-Fc = test: NGF/TrkA-Fc binding by NGF ELISA; conditions: up to 10,000 nM compound
Method: (§5) Briefly, 96-well plates were incubated with 0.1 pmol (at 1 nM) of p75/Fc or TrkA/Fc recombinant protein obtained from R&D System (Minneapolis, Minn., United States of America) overnight at 4° C. followed by incubation with blocking buffer for 1 hour at room temperature. […] Plates were then washed five times with Tris-buffered saline (TBS) containing 0.05% Tween-20 and incubated with anti-NGF rabbit polyclonal antibody overnight at 4° C. Following five washes with TBS, wells were incubated for 2.5 hours at room temperature with anti-rabbit IgG HRP conjugate and washed five times. 3,3′,5,5′-tetramethyl-benzidine substrate was added and the optical density measured at 450 nm.

hippocampal neurons [3] = test: Hippocampal neuron survival with p75NTR antisera (antibody inhibition); assay type: cell-based, mouse; conditions: antiserum 1:100, 48 h
Method: as §1, §2
(§6) For all studies applying signaling inhibitors, p75^NTR antibodies or p75^NTR−/− neurons, survival was assessed at 48 hours.

p75^NTR−/− cells = test: Survival of p75NTR+/+ versus p75NTR-/- hippocampal neurons; assay type: cell-based, mouse; conditions: neurotrophins 1.8 nM, compounds 5 nM
Method: as §1, §2, §6

hippocampal neurons [4] = test: Hippocampal neuron survival with signaling pathway inhibitors; assay type: cell-based, mouse; conditions: PD98059 50 μM; BDNF/NGF 25 ng/ml, compounds 5 nM; 48 h
Method: as §1, §2, §6

p75^NTR-Fc [5] = target: T2, p75^NTR-Fc (Homo sapiens, UniProt P08138); test: NGF/p75NTR-Fc binding by NGF ELISA, Gaddum/Schild fit; conditions: read-out: KD for NGF; in the absence of compounds
T2 construct: purchased R&D Systems
T2 sequence (P08138 with tags, fused parts or gaps limits assumed): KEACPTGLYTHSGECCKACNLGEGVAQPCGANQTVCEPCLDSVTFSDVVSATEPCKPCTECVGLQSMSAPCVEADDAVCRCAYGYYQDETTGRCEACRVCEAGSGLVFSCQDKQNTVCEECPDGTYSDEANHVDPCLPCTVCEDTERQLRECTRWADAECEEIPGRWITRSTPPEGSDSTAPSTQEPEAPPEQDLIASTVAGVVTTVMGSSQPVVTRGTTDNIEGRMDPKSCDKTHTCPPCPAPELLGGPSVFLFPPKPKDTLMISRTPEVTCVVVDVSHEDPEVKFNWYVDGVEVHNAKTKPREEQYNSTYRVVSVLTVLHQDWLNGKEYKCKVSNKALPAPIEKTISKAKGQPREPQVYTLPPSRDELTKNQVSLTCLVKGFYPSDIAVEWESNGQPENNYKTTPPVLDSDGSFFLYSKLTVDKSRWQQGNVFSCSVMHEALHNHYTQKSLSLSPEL
Method: as §5
A regression analysis of NGF-p75^NTR binding in the presence of the p75-binding compounds was performed. The data was fit using the Nonlinear Regression module of Sigmaplot, to a modification of the Gaddum/Schild equation (adapted from Motulsky, H. J., and Christopoulos. A. (2003) A Practical Guide to Curve Fitting, 2nd edn. (San Diego, Calif., GraphPad Software, Inc.): […]

p75^NTR-Fc [6] = target: T2, p75^NTR-Fc; conditions: read-out: KD for NGF, previous reports; Nykjaer et al. 2004; cited from earlier work
TrkB = target: T3, TrkB (Mus musculus, UniProt P15209); test: Trk Y490 phosphorylation western blot in hippocampal neuron cultures; assay type: cell-based; conditions: 10 or 30 minutes
T3 construct: endogenous in cells; host or cells: primary hippocampal neurons from E16-17 mouse embryos
T3 sequence (P15209 32-821): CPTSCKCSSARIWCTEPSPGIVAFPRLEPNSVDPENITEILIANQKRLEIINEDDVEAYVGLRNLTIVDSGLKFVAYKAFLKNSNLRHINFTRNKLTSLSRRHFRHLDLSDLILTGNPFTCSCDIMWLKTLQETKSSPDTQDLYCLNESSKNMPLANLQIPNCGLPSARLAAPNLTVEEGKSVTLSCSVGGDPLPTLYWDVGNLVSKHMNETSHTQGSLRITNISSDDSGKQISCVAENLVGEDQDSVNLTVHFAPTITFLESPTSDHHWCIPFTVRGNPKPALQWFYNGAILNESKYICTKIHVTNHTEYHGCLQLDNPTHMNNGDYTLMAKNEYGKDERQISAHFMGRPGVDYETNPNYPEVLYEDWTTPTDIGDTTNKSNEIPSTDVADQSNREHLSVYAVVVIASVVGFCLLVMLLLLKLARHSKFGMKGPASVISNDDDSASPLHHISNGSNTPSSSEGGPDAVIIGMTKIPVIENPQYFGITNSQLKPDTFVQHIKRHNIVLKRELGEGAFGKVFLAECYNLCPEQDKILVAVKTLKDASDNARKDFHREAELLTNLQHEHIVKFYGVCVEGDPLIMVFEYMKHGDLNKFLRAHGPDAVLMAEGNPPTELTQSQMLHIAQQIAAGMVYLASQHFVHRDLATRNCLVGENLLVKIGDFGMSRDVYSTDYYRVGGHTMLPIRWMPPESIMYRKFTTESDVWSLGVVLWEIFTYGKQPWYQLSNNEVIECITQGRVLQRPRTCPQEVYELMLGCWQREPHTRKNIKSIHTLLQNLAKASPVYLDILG
Method: as §3, §4

ERK42 = ERK42 activation western blot in hippocampal cultures; assay type: cell-based, mouse; conditions: compounds 20 nM, BDNF/NGF 50 ng/ml; 10 and 30 min
Method: as §3, §4

AKT = AKT activation western blot in hippocampal cultures; assay type: cell-based, mouse; conditions: p75NTR−/− neurons, versus culture medium alone
Method: as §3, §4

displacement of anti-p75NTR Ab 9651 [2] | effect on NGF binding to TrkA-Fc (TrkA-Fc) | Kd (p75^NTR-Fc [5]) [nM] | TrkB activation (Trk Y490 phosphorylation) (TrkB) | Compound | neurotrophic activity (neuron survival response) [1] | NFκB-p65 activation (NFκB-p65) | oligodendrocyte survival with proNGF at 10 nM compound (mature oligodendrocytes; 10 nM compound, proNGF present) | promotion of oligodendrocyte cell death by compound alone (mature oligodendrocytes; absence of proNGF, 24 h) | protection against Aβ1-42-induced death (E17 hippocampal neurons) | survival versus CM in the presence of Ab 9651 (hippocampal neurons [3]) | effect of p75NTR-deficiency on promotion of neuron survival by the substance (p75^NTR−/− cells) | effect of PD98059 (ERK inhibitor) on survival promoted by the substance (hippocampal neurons [4]) | Kd (p75^NTR-Fc [6]) [nM] | ERK42 activation (ERK42) | AKT activation in p75NTR−/− cells (AKT)
no effect | no significant effect up to 10,000 nM |  |  | CCN(CC)CCCNC(=O)Cn1cnc2c1c(=O)n(C)c(=O)n2C [Compound 5] | little or no neurotrophic activity; also recorded: no response | did not induce | appeared to decrease survival | did not promote cell death | failed to block | not significant |  |  |  |  | 
 |  | 0.8 to 0.9 | no activation was detected | NGF: Recombinant human NGF obtained from Invitrogen |  |  |  |  | fails to protect; also recorded: did not protect |  | lack of response; also recorded: completely inhibits | small but significant effect; also recorded: small effects | ~1 | greater with BDNF and NGF treatment than with the p75-binding compounds | completely absent
